Like-named read-outs stand apart in the source and are kept apart here.

Data on 3 compounds can be found in patent publication US20080299587A1, “METHODS OF MEASURING INHIBITION OF PLATELET AGGREGATION BY THROMBIN RECEPTOR ANTAGONISTS” (priority 2007, published 2008).

In data set [1] the target is T1, platelet thrombin receptors (Homo sapiens, UniProt P25116).
T1 construct: host or cells: platelets
T1 sequence (P25116 22-425): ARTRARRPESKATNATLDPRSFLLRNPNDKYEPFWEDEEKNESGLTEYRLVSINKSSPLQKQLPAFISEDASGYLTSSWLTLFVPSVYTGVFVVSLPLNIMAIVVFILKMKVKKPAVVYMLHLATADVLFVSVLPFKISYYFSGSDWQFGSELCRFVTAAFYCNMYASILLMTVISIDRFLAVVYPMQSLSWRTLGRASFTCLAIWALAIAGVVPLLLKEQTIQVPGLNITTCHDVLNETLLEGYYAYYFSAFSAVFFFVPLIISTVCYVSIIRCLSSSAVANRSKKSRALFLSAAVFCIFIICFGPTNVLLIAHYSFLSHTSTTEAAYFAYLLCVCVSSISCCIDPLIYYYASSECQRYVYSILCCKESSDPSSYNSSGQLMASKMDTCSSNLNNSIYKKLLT
As to conditions: receptors activated by either thrombin or TRAP-1; cited from earlier work.

The conditions of data set [2]: rat balloon injury model; cited from earlier work.
For data set [3] the following is noted: guinea pig thrombosis model; cited from earlier work.
The test system of data set [4] is platelets in whole blood activated by PAR-1 thrombin receptor activating peptide (TRAP-1). As to conditions: expected level of inhibition provided, cited from earlier work.
Data set [5] deals with IL-6, CD40 ligand and P-selectin. As to conditions: human cells; cited from earlier work.
The subject of data set [6] is platelets in whole blood activated by PAR-1 thrombin receptor activating peptide (TRAP-1). As to the kind of experiment: VERIFYNOW IIb/IIIa Assay, dose-dependent platelet inhibition with TRAP-1 as platelet activator. The format is cell-based, human. As to conditions: TRAP-1 3.7 μM; for % Inhibition, Average: Average of four human donors; for % Inhibition (platelet inhibition relative to baseline): whole blood, 30 min 37°C. The source says:
The VERIFYNOW™ System instrument is a turbidometric based optical detection system that measures platelet induced aggregation as an increase in light transmittance. The system includes an analyzer, disposable cartridge and controls. The cartridge contains reagents based on microparticle agglutination technology. The quality control system includes an electronic control, two levels of assayed “wet” controls (WQC), an in-cartridge humidity sensor, an in-packaging temperature indicator, and a test for concurrence of two assay channels. […] For use in the present methods the test cartridge of the system contains a lyophilized preparation comprising particles with passively bound GPIIb/IIIa receptor ligand, a thrombin receptor activator, and buffer. The patient sample is usually citrated whole blood, which is automatically dispensed from the blood collection tube into the cartridge by the analyzer, with no blood handling required by the user. The interaction is monitored by the infrared absorbency characteristics of the particles. As the particles interact with the platelets, the agglutination of the particles is measured through the optical system of the VERIFYNOW™ instrument. The agglutination is detected as an increase in the transmission of infrared light through the sample.
An experiment was conducted to determine dose-dependent platelet inhibition by the PAR-1 antagonist E5555 (Eisai Co., Ltd.) using the VERIFYNOW™ IIb/IIIa Assay (Accumetrics, Inc., San Diego, Calif.) and PAR-1 thrombin receptor activating peptide (TRAP-1) as the platelet activator.
Dose response testing was performed with TRAP-1 at 3.7 μM. E5555 was used at final concentrations of 30 ng/ml, 10 ng/ml, 5.0 ng/ml and 1.0 ng/ml. 20 μL of each stock solution was spiked into 2.0 ml of whole blood (1:100 dilution) and mixed carefully to prevent hemolysis. After mixing, the blood samples were incubated for 30 min at 37° C. prior to platelet inhibition test.
Blood samples from four human donors were run in duplicate at baseline and for each of the four E5555 concentrations. As one might have expected, there was donor-to-donor variability in the levels of platelet inhibition measured at a given concentration of E5555. Based on the expected levels of inhibition at each concentration of E5555 provided, the actual results were on average slightly lower than expected across the four donors.

The conditions of data set [7]: rabbit subarachnoid hemorrhage model; cited from earlier work.
For the next data set, the target named is T2, PAR-1 thrombin receptor (Homo sapiens, UniProt P25116).
T2 sequence (P25116 22-425): T1 sequence (P25116 22-425)
As to conditions: cited from earlier work.

The test system of another data set is platelet aggregation. As to conditions: blood samples from patients undergoing non-urgent PCI; cited from earlier work.
For data set [8] the following is noted: Phase II clinical studies, treated patients; cited from earlier work.

For the compound “Phe-Leu-Leu-Arg-Asn (FLLRN; printed: Phe-Leu-Leu-Arg-Asn) [truncated TRAP-1 pentapeptide]”, the “antagonism of platelet thrombin receptors” value in data set [1] is recorded as “weak antagonist”.
As to `CCOc1cc2c(c(F)c1OCC)C(=N)N(CC(=O)c1cc(N3CCOCC3)c(OC)c(C(C)(C)C)c1)C2` [E5555], the “effect on neointima hyperplasia” value in data set [2] is “inhibitory effects”. Further, the anti-thrombotic effect result in data set [3] is on record as “anti-thrombotic effect”. For the same compound, the “% Inhibition, Expected” value in [4] (1 ng/ml E5555) was 10-50%; in data set [4] (5 ng/ml E5555), 40-80%; in data set [4] (10 ng/ml E5555), 70-100%; in data set [4] (30 ng/ml E5555), 100%. Further, in data set [5], the “effect on thrombin-induced release or expression of inflammatory markers (IL-6, CD40 ligand, P-selectin)” value was “inhibitory effects”. Moreover, the “% Inhibition, Average” value was 5% in data set [6] (1 ng/ml E5555), 30% in [6] (5 ng/ml E5555), 57% in [6] (10 ng/ml E5555) and 86% in data set [6] (30 ng/ml E5555). Besides, the “% Inhibition (platelet inhibition relative to baseline)” value in [6] (Donor ID: 60, 1 ng/ml E5555) is 7%; in data set [6] (Donor ID: 60, 5 ng/ml E5555), 17%; in [6] (Donor ID: 60, 10 ng/ml E5555) it was 46%; in [6] (Donor ID: 60, 30 ng/ml E5555), 82%; in [6] (Donor ID: 75, 1 ng/ml E5555), −1%; in data set [6] (Donor ID: 75, 5 ng/ml E5555), 15%. Moreover, the “% Inhibition (platelet inhibition relative to baseline)” value stood at 39% in data set [6] (Donor ID: 75, 10 ng/ml E5555); 78% in data set [6] (Donor ID: 75, 30 ng/ml E5555); 5% in data set [6] (Donor ID: 126, 1 ng/ml E5555); 51% in [6] (Donor ID: 126, 5 ng/ml E5555); 77% in [6] (Donor ID: 126, 10 ng/ml E5555); 97% in data set [6] (Donor ID: 126, 30 ng/ml E5555). Moreover, the “% Inhibition (platelet inhibition relative to baseline)” value in data set [6] (Donor ID: 137, 1 ng/ml E5555) came to 7%; in data set [6] (Donor ID: 137, 5 ng/ml E5555), 35%; in data set [6] (Donor ID: 137, 10 ng/ml E5555), 66%; in data set [6] (Donor ID: 137, 30 ng/ml E5555), 88%. In addition, the “effect on thrombin-induced contractile response” value in [7] was “inhibitory effects”.
On to `CCOC(=O)N[C@@H]1CC[C@@H]2[C@@H](C1)C[C@H]1C(=O)O[C@H](C)[C@H]1[C@H]2/C=C/c1ccc(-c2cccc(F)c2)cn1` [SCH 530348], for which, at PAR-1 thrombin receptor, the “inhibition of the PAR-1 thrombin receptor” value was “potent inhibitor”. Moreover, the “inhibition of platelet aggregation” value with platelet aggregation is on record as “sustained, dose-dependent, specific agonist-induced inhibition of platelet aggregation”. Besides, the “bleeding time and coagulation times” value in data set [8] is reported as “no increase in bleeding time or prolongation in coagulation times”.
